Assay results: the Kinase Knowledgebase extract (Sharma et al. 2016)

Target: MAPK14 (UniProt Q16539)
Assay: Inhibition of MAPK14 Kinase Activity

MAPK14, sequence (Q16539 whole entry, looked up): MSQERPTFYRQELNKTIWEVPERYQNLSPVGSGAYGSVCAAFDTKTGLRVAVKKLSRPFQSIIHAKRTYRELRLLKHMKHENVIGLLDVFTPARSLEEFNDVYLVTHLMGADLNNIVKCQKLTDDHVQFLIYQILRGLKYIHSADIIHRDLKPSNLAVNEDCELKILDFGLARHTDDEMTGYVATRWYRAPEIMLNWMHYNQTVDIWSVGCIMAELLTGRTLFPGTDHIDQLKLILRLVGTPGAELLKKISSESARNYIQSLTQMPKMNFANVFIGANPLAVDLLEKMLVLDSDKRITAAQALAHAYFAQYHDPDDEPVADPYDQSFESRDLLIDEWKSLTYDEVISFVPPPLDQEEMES

IC50, ≤ 5 µM:
C#Cc1nc(-c2ccccc2)c(-c2ccc3nc(N)n(S(=O)(=O)C(C)C)c3c2)n1C1CCCCC1, CC(C)S(=O)(=O)n1c(N)nc2ccc(-c3c(-c4ccccc4)ncn3CCCc3ccccc3)cc21, CC(C)S(=O)(=O)n1c(N)nc2ccc(-c3nc(-c4cccc(OCCN5CCCCC5)c4)[nH]c3-c3ccccc3)cc21, CC(C)S(=O)(=O)n1c(N)nc2ccc(-c3nc(-c4ccccc4N4CCN(C)CC4)[nH]c3-c3ccccc3)cc21, CC(C)S(=O)(=O)n1c(N)nc2ccc(-c3c(-c4ccccc4F)nc(Br)n3C3CCCCC3)cc21, CC(C)S(=O)(=O)n1c(N)nc2ccc(-c3nc(C4CCNCC4)[nH]c3-c3ccc(F)cc3)cc21, C#Cc1nc(-c2ccccc2F)c(-c2ccc3nc(N)n(S(=O)(=O)C(C)C)c3c2)n1C1CC1, CC(C)S(=O)(=O)n1c(N)nc2ccc(-c3c(-c4ccccc4)nc4n3CCCC4)cc21, CC(C)S(=O)(=O)n1c(N)nc2ccc(-c3[nH]n(-c4ccccc4)c(=O)c3-c3ccccc3)cc21, CC(C)S(=O)(=O)n1c(N)nc2ccc(-c3nc(-c4ccccc4F)[nH]c3-c3ccccc3)cc21, CC(C)S(=O)(=O)n1c(N)nc2ccc(-c3c(-c4ccc(F)cc4)ncn3C3CC3)cc21, CC(C)S(=O)(=O)n1c(N)nc2ccc(-c3nc(-c4c(F)cccc4Cl)[nH]c3-c3ccc(F)cc3)cc21, CC(C)S(=O)(=O)n1c(N)nc2ccc(-c3c(-c4ccccc4)ncn3Cc3ccc(F)cc3F)cc21, CC(C)S(=O)(=O)n1c(N)nc2ccc(-c3c(-c4ccccc4)ncn3CCN3CCOCC3)cc21, CC(C)S(=O)(=O)n1c(N)nc2ccc(-c3nc(-c4ccc(F)cc4F)[nH]c3-c3ccccc3)cc21, CC(C)S(=O)(=O)n1c(N)nc2ccc(-c3nc(-c4ccc(OCCN5CCCC5)c(F)c4)[nH]c3-c3ccccc3)cc21, CC(C)S(=O)(=O)n1c(N)nc2ccc(-c3nc(-c4ccc(OCCN5CCOCC5)c(F)c4)[nH]c3-c3ccccc3)cc21, CC(C)S(=O)(=O)n1c(CCN)nc2ccc(-c3nc(-c4c(F)cccc4F)[nH]c3-c3ccccc3)cc21, CC(C)S(=O)(=O)n1c(N)nc2ccc(-c3c(-c4ccc(F)cc4F)ncn3C)cc21, CC(C)S(=O)(=O)n1c(N)nc2ccc(-c3c(-c4cccc(F)c4)ncn3Cc3cccnc3)cc21, COc1ccc(Cn2c(CO)nc(-c3ccccc3)c2-c2ccc3nc(N)n(S(=O)(=O)C(C)C)c3c2)cc1, CCn1cnc(-c2ccc(F)cc2)c1-c1ccc2nc(N)n(S(=O)(=O)C(C)C)c2c1, CC(C)S(=O)(=O)n1c(N)nc2ccc(-c3nc(-c4ccccc4)[nH]c3-c3ccccc3)cc21, CC(C)S(=O)(=O)n1c(N)nc2ccc(-c3c(-c4ccccc4)ncn3Cc3ccccc3F)cc21, CC(C)S(=O)(=O)n1c(N)nc2ccc(-c3nc(-c4ccc(F)cc4F)[nH]c3-c3cc(F)cc(F)c3)cc21, Nc1nc2ccc(-c3c(-c4ccccc4)ncn3C3CCCCC3)cc2s1, CC(C)S(=O)(=O)n1c(N)nc2ccc(-c3nc(C4CCNCC4)[nH]c3-c3ccccc3)cc21, CC(C)S(=O)(=O)n1c(N)nc2ccc(-c3nc(C4CCN(Cc5nccn5C)CC4)[nH]c3-c3ccccc3)cc21, CC(C)S(=O)(=O)n1c(N)nc2ccc(-c3c(-c4ccsc4)ncn3[C@H]3CC[C@H](O)CC3)cc21, Nc1nc2ccc(-c3nc[nH]c3-c3ccccc3)cc2[nH]1, CC(C)S(=O)(=O)n1c(N)nc2ccc(-c3nc(-c4nccs4)[nH]c3-c3ccccc3)cc21, Cc1cc(-c2ccc3nc(N)n(S(=O)(=O)C(C)C)c3c2)n(-c2ccccc2)n1, CC(C)S(=O)(=O)n1c(N)nc2ccc(-c3nc(CN4CCOCC4)[nH]c3-c3ccccc3)cc21, Cc1ccccc1-c1[nH]c(-c2ccc(F)cc2)nc1-c1ccc2nc(N)n(S(=O)(=O)C(C)C)c2c1, CC(C)S(=O)(=O)n1c(N)nc2ccc(-c3c(-c4ccc(F)cc4F)ncn3C3CC3)cc21, CC(C)S(=O)(=O)n1c(N)nc2ccc(-c3nn[nH]c3-c3ccccc3)cc21, Cc1nc(-c2ccccc2)c(-c2ccc3nc(N)n(S(=O)(=O)C(C)C)c3c2)s1, CC(C)S(=O)(=O)n1c(N)nc2ccc(-c3nc(-c4ccc(NS(C)(=O)=O)cc4)[nH]c3-c3ccccc3)cc21, COc1ccc(-c2nc(-c3ccc4nc(N)n(S(=O)(=O)C(C)C)c4c3)c(-c3ccccc3)[nH]2)cc1, CC(C)n1cnc(-c2ccccc2)c1-c1ccc2nc(N)n(S(=O)(=O)C(C)C)c2c1, CC(C)S(=O)(=O)n1c(Cc2ccccc2N)nc2ccc(-c3[nH]cnc3-c3ccccc3)cc21, CC(C)S(=O)(=O)n1c(N)nc2ccc(-c3c(-c4ccc(F)cc4F)ncn3[C@H]3CC[C@H](O)CC3)cc21, CC(C)S(=O)(=O)n1c(N)nc2ccc(-c3c(-c4ccc(F)cc4)ncn3[C@@H](C)CO)cc21, NCCc1nc2ccc(-c3c(-c4ccccc4)ncn3C3CCCCC3)cc2s1, Cc1nc(-c2ccc3nc(N)n(S(=O)(=O)C(C)C)c3c2)c(-c2ccc(F)cc2)[nH]1, CC(C)S(=O)(=O)n1c(N)nc2ccc(-c3c(-c4ccccc4)ncn3CCNC(=O)OC(C)(C)C)cc21, Nc1nc2ccc(-c3nc[nH]c3-c3ccccc3)cc2s1, CC(C)S(=O)(=O)n1c(N)nc2ccc(-c3c(-c4cccc(F)c4F)ncn3[C@H]3CC[C@H](O)CC3)cc21, CC(C)S(=O)(=O)n1c(N)nc2ccc(-c3c(-c4ccccc4)ncn3C3CCC(N)CC3)cc21 (configuration not stated), CC(C)S(=O)(=O)n1c(N)nc2ccc(-c3c(-c4ccccc4)ncn3C3CCCC3)cc21, CC(C)S(=O)(=O)n1c(N)nc2ccc(-c3nc[nH]c3-c3ccccc3)cc21, CC(C)S(=O)(=O)n1c(N)nc2ccc(-c3c(-c4ccccc4)ncn3Cc3cccc(F)c3)cc21, CC(C)S(=O)(=O)n1c(N)nc2ccc(-c3c(-c4ccccc4F)nc(C#CCCO)n3C3CC3)cc21, COc1ccc(Cn2cnc(-c3ccccc3)c2-c2ccc3ncn(S(=O)(=O)C(C)C)c3c2)cc1, CC(C)S(=O)(=O)n1c(N)nc2ccc(-c3c(-c4ccccc4F)nc(-c4ccc(F)cc4F)n3C3CC3)cc21, CC(C)S(=O)(=O)n1c(N)nc2ccc(-c3nc(-c4ccsc4)[nH]c3-c3ccc(F)cc3)cc21, CC(C)S(=O)(=O)n1c(N)nc2ccc(-c3nc(-c4ccc(N)s4)[nH]c3-c3ccccc3)cc21, CC(C)S(=O)(=O)n1c(N)nc2ccc(-c3nc(-c4cccs4)n(C)c3-c3ccccc3)cc21, CC(C)S(=O)(=O)n1c(N)nc2ccc(-c3nc(-c4ccc(N5CCCC5)cc4)[nH]c3-c3ccccc3)cc21, CCOC(=O)N1CCC(n2cnc(-c3cccc(F)c3)c2-c2ccc3nc(N)n(S(=O)(=O)C(C)C)c3c2)CC1, CCNc1ccc(-c2nc(-c3ccc4nc(N)n(S(=O)(=O)C(C)C)c4c3)c(-c3ccccc3)[nH]2)cc1, CCn1cnc(-c2ccccc2)c1-c1ccc2nc(N)n(S(=O)(=O)C(C)C)c2c1, CC(C)S(=O)(=O)n1c(N)nc2ccc(-c3nc(CN(C)CCN(C)C)[nH]c3-c3ccccc3)cc21, CC(C)S(=O)(=O)n1c(N)nc2ccc(-c3nc(C4CCN(C(=O)OC(C)(C)C)CC4)[nH]c3-c3ccccc3)cc21, CC(C)S(=O)(=O)n1c(N)nc2ccc(-c3c(-c4cccc(F)c4F)ncn3C)cc21, CC(C)S(=O)(=O)n1c(N)nc2ccc(-c3c(-c4ccccc4)ncn3[C@H](C)CO)cc21, NCCc1nc2ccc(-c3nc(-c4c(F)cccc4F)[nH]c3-c3ccccc3)cc2[nH]1, CC(C)S(=O)(=O)n1c(N)nc2ccc(-c3nc(C(C)(C)C)[nH]c3-c3ccccc3)cc21, Cc1ccc(-c2[nH]c(-c3ccc(F)cc3)nc2-c2ccc3nc(N)n(S(=O)(=O)C(C)C)c3c2)cc1, CC(C)S(=O)(=O)n1c(N)nc2ccc(-c3c(-c4ccccc4)ncn3[C@@H]3CCCC[C@H]3O)cc21, CC(C)S(=O)(=O)n1c(N)nc2ccc(-c3c(-c4cccc(F)c4)ncn3[C@H]3CC[C@H](O)CC3)cc21, CC1=CC2=NC(c3ccccc3)C(c3ccc4nc(N)n(S(=O)(=O)C(C)C)c4c3)N2C=C1 (configuration not stated), CC(C)S(=O)(=O)n1c(N)nc2ccc(-c3nc(-c4ncc[nH]4)[nH]c3-c3ccccc3)cc21, CC(C)S(=O)(=O)n1c(N)nc2ccc(-c3nc(C4CCOCC4)[nH]c3-c3ccc(F)cc3)cc21, CC(C)S(=O)(=O)n1c(N)nc2ccc(-c3nc(-c4c(F)cccc4F)n(C)c3-c3ccccc3)cc21, CC(C)S(=O)(=O)n1c(N)nc2ccc(-c3nc(-c4ccc(OCCN5CCCCC5)cc4)[nH]c3-c3ccccc3)cc21, CC(C)S(=O)(=O)n1c(N)nc2ccc(-c3nc(-c4ccc(N)cc4)[nH]c3-c3ccccc3)cc21
